Like-named read-outs stand apart in the source and are kept apart here.
Key:
[1] = tested on: oxazolone-induced colitis; experiment: Mouse model of oxazolone-induced colitis; type: in vivo; details: 3 mg/kg (PO, BID)
Protocol: Oxazolone-induced colitis is an experimental model that has a histological resemblance to human ulcerative colitis (Heller et al. Immunology, 2002, 17, 629-638). Adult BALB/C mice from Harlan were used in the assay. On day 1, animals were lightly anesthetized with isoflurane and the hairs between the shoulder were carefully removed before oxazolone (4%, 150 μL, 4:1 acetone:olive oil formulation) or vehicle solution was slowly applied for skin sensitization. Seven days after skin sensitization, the mice were fasted around 6 hours prior, anesthetized with ketamine/xylazine injection, and a 1 mL syringe equipped with a 3.5-F catheter, filled with oxazolone solution, was inserted carefully about 4 cm into the colon of the mouse. Following insertion, 50 μL of the oxazolone solution (0.8% in 1:1 ethanol:water formulation) was injected very slowly (over 30 sec using an injection pump) into the colon. Drug treatment (PO, QD or BID or TID) or vehicle was initiated a day prior to the oxazolone intrarectal (IR) challenge. Two-day post oxazolone intrarectal challenge, the disease was assessed by treatment-blinded experimenters for each mouse according to the criteria score: stool consistency score (0, normal; 2, loose; 4, diarrhea), gross bleeding score (0, absence; 2, blood tinged; 4, presence); Combined stool score endpoint=stool consistency score+stool blood score.
Select compounds were tested in the assay.

[2] = tested on: IL-2 stimulated pSTAT5 in Tall-1 T cells; experiment: Cellular JAK3 potency assay: inhibition of IL-2 stimulated pSTAT5 in Tall-1 T cells; type: cell-based, human; details: for IC50: Homo sapiens, read-out: Tall-1 (pIC50) (converted)
How it was run: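 Inhibition of IL-2-induced pSTAT5 was quantified by AlphaLisa in Tall-1 cell lysates. Compound exposure lasted 1 h before 30 min stimulation with 300 ng/ml IL-2 final.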

[3] = target: T1, JAK1 (Homo sapiens, UniProt P23458); experiment: Biochemical JAK1 kinase assay (LanthaScreen); details: for Ki: read-out: JAK 1 (pKi) (converted)
T1 construct: GST; purchased Life Technologies
T1 sequence (P23458 whole entry): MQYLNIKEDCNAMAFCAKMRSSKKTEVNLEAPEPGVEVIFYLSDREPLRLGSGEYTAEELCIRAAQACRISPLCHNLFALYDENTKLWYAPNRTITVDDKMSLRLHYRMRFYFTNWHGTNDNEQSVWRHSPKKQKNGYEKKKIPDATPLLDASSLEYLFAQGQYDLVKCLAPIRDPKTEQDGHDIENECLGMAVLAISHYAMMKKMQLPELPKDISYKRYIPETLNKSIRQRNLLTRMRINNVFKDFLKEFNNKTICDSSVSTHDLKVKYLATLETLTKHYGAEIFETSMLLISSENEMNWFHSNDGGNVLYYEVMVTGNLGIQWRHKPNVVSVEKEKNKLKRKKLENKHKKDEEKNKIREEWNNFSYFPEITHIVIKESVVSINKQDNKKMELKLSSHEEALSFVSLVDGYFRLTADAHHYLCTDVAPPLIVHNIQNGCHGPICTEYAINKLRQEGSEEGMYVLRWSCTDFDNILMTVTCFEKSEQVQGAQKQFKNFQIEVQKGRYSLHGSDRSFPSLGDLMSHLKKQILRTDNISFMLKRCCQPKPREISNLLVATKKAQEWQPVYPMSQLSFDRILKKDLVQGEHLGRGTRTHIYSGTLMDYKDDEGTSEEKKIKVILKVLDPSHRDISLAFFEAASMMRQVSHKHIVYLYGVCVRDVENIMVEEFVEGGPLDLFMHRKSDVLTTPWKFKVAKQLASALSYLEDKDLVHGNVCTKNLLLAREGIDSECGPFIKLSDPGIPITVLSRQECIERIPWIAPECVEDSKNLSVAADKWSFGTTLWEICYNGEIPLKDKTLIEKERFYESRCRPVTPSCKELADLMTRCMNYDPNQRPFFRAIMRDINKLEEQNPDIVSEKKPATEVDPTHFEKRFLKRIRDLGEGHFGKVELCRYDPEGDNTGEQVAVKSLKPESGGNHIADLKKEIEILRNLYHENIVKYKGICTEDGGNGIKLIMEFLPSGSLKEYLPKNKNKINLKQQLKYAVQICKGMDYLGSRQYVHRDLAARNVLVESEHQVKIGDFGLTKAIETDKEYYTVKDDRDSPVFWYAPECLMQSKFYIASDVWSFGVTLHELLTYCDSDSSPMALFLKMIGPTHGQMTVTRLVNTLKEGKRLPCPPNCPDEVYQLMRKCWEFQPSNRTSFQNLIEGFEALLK
How it was run: (§1)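 GST-tagged JAK enzyme and GFP-STAT1 peptide preincubated with compound 1 h, then ATP added; 1 h kinase reaction at ambient temperature, pH 7.5 HEPES/MgCl2 buffer, 1% DMSO. Tb-anti-pSTAT1 (pTyr701) TR-FRET, 520/495 nm ratio; IC50 from 4-parameter fit, converted to pKi via Cheng-Prusoff.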

[4] = target: T2, JAK3 (Homo sapiens, UniProt P52333); experiment: Biochemical JAK3 kinase assay (LanthaScreen); design: GST; purchased Life Technologies; details: for Ki: read-out: JAK 3 (pKi) (converted)
T2 sequence (P52333 1-1124): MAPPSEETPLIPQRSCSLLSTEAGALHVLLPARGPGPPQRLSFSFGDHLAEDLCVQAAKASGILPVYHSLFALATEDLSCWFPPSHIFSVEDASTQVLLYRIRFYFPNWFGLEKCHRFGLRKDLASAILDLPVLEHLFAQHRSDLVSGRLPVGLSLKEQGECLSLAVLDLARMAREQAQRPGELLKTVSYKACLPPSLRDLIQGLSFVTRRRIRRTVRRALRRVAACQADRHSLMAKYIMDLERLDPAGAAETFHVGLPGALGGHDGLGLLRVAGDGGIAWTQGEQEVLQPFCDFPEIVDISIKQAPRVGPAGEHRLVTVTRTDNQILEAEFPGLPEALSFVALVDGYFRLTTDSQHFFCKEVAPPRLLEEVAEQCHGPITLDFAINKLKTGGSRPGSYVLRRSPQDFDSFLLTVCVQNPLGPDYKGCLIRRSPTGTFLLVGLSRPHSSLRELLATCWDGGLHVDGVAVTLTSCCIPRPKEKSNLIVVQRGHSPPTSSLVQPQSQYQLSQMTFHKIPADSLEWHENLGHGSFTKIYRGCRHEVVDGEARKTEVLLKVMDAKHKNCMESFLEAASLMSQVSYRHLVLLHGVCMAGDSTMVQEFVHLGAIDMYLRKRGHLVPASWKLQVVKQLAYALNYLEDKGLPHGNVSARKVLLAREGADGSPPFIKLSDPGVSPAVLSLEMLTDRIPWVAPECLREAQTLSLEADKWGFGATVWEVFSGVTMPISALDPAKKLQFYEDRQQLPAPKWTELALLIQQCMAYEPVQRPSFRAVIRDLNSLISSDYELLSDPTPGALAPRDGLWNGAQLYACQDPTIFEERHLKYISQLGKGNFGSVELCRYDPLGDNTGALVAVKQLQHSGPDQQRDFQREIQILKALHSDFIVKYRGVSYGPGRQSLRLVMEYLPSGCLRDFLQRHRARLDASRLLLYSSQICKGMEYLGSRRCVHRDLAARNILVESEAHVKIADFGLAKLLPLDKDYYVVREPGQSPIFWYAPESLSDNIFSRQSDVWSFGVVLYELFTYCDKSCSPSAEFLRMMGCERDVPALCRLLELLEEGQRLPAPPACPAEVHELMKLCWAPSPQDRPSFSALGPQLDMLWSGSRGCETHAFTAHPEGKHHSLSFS
How it was run: as §1

[5] = target: T3, Tyk2 (Homo sapiens, UniProt P29597); experiment: Biochemical Tyk2 kinase assay (LanthaScreen); details: for Ki: read-out: Tyk 2 (pKi) (converted)
T3 construct: GST; purchased Life Technologies
T3 sequence (P29597 whole entry): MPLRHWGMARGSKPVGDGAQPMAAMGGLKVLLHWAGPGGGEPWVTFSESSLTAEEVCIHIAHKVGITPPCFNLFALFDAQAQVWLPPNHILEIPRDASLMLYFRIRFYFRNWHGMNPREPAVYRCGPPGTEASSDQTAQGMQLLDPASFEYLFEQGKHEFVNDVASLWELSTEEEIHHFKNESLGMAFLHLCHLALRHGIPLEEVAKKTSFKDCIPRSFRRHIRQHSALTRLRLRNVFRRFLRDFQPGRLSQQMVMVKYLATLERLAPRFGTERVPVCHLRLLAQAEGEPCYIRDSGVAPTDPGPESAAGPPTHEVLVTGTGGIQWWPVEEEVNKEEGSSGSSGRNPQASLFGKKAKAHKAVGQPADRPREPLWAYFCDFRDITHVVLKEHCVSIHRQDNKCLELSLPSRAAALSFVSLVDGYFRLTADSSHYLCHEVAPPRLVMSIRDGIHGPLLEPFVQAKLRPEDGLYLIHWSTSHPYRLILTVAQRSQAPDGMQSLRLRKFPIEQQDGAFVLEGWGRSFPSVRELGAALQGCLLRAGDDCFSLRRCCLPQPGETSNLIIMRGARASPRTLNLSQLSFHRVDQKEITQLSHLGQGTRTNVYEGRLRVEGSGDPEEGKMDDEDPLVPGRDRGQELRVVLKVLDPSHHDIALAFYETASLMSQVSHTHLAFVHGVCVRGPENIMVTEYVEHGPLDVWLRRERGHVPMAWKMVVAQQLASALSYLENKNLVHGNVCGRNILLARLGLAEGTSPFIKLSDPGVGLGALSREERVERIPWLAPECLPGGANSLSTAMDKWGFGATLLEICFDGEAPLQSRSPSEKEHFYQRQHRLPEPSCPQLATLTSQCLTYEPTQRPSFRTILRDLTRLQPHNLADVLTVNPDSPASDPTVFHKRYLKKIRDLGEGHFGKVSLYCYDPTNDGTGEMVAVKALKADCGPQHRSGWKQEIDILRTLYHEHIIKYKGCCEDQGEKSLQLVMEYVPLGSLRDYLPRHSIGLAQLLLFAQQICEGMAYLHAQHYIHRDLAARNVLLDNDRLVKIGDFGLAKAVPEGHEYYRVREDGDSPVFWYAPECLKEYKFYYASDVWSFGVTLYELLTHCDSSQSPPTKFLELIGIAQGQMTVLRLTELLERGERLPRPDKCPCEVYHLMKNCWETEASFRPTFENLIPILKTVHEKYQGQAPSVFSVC
How it was run: as §1

[6] = target: T4, JAK2 (Homo sapiens, UniProt O60674); experiment: Biochemical JAK2 kinase assay (LanthaScreen); details: for Ki: read-out: JAK 2 (pKi) (converted)
T4 construct: GST; purchased Life Technologies
T4 sequence (O60674 whole entry): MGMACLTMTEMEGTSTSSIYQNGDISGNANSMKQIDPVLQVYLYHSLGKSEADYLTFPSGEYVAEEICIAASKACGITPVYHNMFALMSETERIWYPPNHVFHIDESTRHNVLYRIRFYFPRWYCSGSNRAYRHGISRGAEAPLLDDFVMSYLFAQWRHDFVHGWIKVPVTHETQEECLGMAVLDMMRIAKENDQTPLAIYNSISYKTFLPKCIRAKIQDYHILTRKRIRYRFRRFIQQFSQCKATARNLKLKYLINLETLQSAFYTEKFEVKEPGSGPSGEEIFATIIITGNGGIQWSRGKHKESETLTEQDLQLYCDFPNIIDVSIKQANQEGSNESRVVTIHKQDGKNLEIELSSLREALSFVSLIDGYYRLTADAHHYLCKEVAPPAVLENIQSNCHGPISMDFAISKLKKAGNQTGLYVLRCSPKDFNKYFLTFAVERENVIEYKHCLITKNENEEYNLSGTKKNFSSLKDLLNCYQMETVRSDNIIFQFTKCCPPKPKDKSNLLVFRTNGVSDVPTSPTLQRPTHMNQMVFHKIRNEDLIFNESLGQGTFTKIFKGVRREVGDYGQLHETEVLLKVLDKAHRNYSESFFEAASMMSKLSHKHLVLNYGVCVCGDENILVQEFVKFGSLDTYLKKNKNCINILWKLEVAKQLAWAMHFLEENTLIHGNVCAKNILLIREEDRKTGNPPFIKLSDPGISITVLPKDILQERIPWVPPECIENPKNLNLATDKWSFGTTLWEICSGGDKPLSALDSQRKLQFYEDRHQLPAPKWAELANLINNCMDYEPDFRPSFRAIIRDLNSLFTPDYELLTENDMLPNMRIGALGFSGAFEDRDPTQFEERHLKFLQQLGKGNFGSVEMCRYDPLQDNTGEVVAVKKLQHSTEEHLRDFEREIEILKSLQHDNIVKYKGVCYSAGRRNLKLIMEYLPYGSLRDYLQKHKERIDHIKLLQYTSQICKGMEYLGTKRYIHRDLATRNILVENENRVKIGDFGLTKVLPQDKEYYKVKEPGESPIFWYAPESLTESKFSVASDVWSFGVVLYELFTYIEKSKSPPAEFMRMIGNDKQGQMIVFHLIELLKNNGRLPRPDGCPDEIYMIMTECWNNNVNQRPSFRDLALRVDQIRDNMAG
How it was run: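 pKi values derive from pIC50 via Cheng-Prusoff, with IC50 from a 4-parameter fit of percent-inhibition TR-FRET data using Tb-anti-pSTAT1 (pTyr701) detection. Compound, GST-JAK2 and GFP-STAT1 substrate were pre-incubated 1 h, then ATP started a 1 h ambient reaction (HEPES pH 7.5, 10 mM MgCl2, 1% DMSO).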

[7] = IL-2 stimulated pSTAT5 in Tall-1 T cells
[8] = selectivity: difference of pKi JAK3 and pKi JAK1
[9] = IL-2 stimulated pSTAT5, Tall-1 T cells
[10] = selectivity JAK3 over JAK1, difference of pKi

SMILES	combined stool score endpoint as compared with vehicle treated animals [1]	Tall-1 (pIC50) [2, 7]	JAK 1 (pKi) [3]	JAK 3 (pKi) [4]	JAK3 (pKi)-JAK1 (pKi) [4, 8]	Tyk 2 (pKi) [5]	JAK 2 (pKi) [6]	Tall-1 (pIC50) [2, 9]	JAK3 (pKi)-JAK1 (pKi) [4, 10]	IC50 ([2]; TALL-1, IL-2 stimulated pSTAT5, Tall-1 T cells)	Ki [3]	Ki [4]	Ki [5]	Ki [6]	IC50 ([2]; TALL-1, IL-2 stimulated pSTAT5 in Tall-1 T cells)
CN(C)C/C=C/C(=O)N1CC(COc2nc(-c3ccc(O)c(Cl)c3)cc3[nH]ncc23)C1 [Compound 3-34]	statistically significant decrease	B (a pIC50 value between 6.7 (included) and 7.5 (IC50 between 200 nM and 32 nM))	E (a pKi value of 7 or below (Ki of 100 nM or above))	A (a pKi value≥10 (Ki≤0.1 nM))	A (a value of 3 or above)	E (a pKi value of 7 or below (Ki of 100 nM or above))	E (a pKi value of 7 or below (Ki of 100 nM or above))								
C=CC(=O)N1CC2(CC(Oc3nc(-c4ccc(O)cc4)nc4[nH]ncc34)C2)C1 [Compound 15-3]	statistically significant decrease		E (a pKi value of 7 or below (Ki of 100 nM or above))	A (a pKi value≥10 (Ki≤0.1 nM))		E (a pKi value of 7 or below (Ki of 100 nM or above))	E (a pKi value of 7 or below (Ki of 100 nM or above))	A (a pIC50 value≥7.5 (IC50≤32 nM))	A (a value of 3 or above)						
CN(C)C/C=C/C(=O)N1CC(Oc2cc(-c3ccc(O)cc3)cc3[nH]ncc23)(C(F)F)C1 [Compound 5-10]	statistically significant decrease	B (a pIC50 value between 6.7 (included) and 7.5 (IC50 between 200 nM and 32 nM))	E (a pKi value of 7 or below (Ki of 100 nM or above))	B (a pKi value between 9 and 10 (Ki between 1 nM and 0.1 nM))	A (a value of 3 or above)										
C=CC(=O)N1CC(CSc2cc(-c3ccc(O)c(F)c3)cc3[nH]ncc23)C1 [Compound 13-7]			E (a pKi value of 7 or below (Ki of 100 nM or above))	A (a pKi value≥10 (Ki≤0.1 nM))		E (a pKi value of 7 or below (Ki of 100 nM or above))	D (a pKi value between 7 and 8 (Ki between 100 nM and 10 nM))	B (a pIC50 value between 6.7 (included) and 7.5 (IC50 between 200 nM and 32 nM))	A (a value of 3 or above)						
CN(C)C/C=C/C(=O)N1CC(C)(Oc2cc(-c3ccc(O)c(Cl)c3)cc3[nH]ncc23)C1 [Compound 5-18]			E (a pKi value of 7 or below (Ki of 100 nM or above))	A (a pKi value≥10 (Ki≤0.1 nM))		E (a pKi value of 7 or below (Ki of 100 nM or above))	E (a pKi value of 7 or below (Ki of 100 nM or above))	A (a pIC50 value≥7.5 (IC50≤32 nM))	A (a value of 3 or above)						
C=CC(=O)N1CC(CC)(COc2nc(-c3ccc(O)c(Cl)c3)cc3[nH]ncc23)C1 [Compound 3-66]		A (a pIC50 value≥7.5 (IC50≤32 nM))	E (a pKi value of 7 or below (Ki of 100 nM or above))	B (a pKi value between 9 and 10 (Ki between 1 nM and 0.1 nM))	A (a value of 3 or above)	E (a pKi value of 7 or below (Ki of 100 nM or above))	E (a pKi value of 7 or below (Ki of 100 nM or above))								
C=CC(=O)N1CC[C@H](Nc2cc(-c3ccc(O)cc3)cc3[nH]ncc23)[C@H](C)C1 [Compound 12-16]									B (a value of 2.3 to 3)	< 31.6 nM	10 to 100 nM	0.1 to 1 nM	> 100 nM	1 to 10 nM	
C=CC(=O)N1CC(CSc2cc(-c3ccc(O)c(Cl)c3)cc3[nH]ncc23)C1 [Compound 13-8]			E (a pKi value of 7 or below (Ki of 100 nM or above))	B (a pKi value between 9 and 10 (Ki between 1 nM and 0.1 nM))		E (a pKi value of 7 or below (Ki of 100 nM or above))	E (a pKi value of 7 or below (Ki of 100 nM or above))	A (a pIC50 value≥7.5 (IC50≤32 nM))	A (a value of 3 or above)						
CN(C)C/C=C/C(=O)N1CC(C(C)(C)Oc2cc(-c3ccc(O)cc3)cc3[nH]ncc23)C1 [Compound 3-24]		B (a pIC50 value between 6.7 (included) and 7.5 (IC50 between 200 nM and 32 nM))	E (a pKi value of 7 or below (Ki of 100 nM or above))	B (a pKi value between 9 and 10 (Ki between 1 nM and 0.1 nM))	A (a value of 3 or above)	E (a pKi value of 7 or below (Ki of 100 nM or above))	E (a pKi value of 7 or below (Ki of 100 nM or above))								
C=CC(=O)N1CC[C@H](Oc2cc(-c3ccc(O)cc3)cc3[nH]nc(COC)c23)C1 [Compound 1-22]					A (a value of 3 or above)						> 100 nM	< 0.1 nM	> 100 nM	10 to 100 nM	31.6 to 200 nM
